Data reported in the supplement of paper PMC10307832.

These cell lines were tested with CC(C)N(CCCNC(=O)Nc1ccc(C(C)(C)C)cc1)C[C@H]1O[C@@H](n2ccc3c(N)ncnc32)[C@H](O)[C@@H]1O + CCNC(=O)c1noc(-c2cc(C(C)C)c(O)cc2O)c1-c1ccc(CN2CCOCC2)cc1 [Luminespib] (partner 0.01 µM) (assay: relative viability (nuclei count vs DMSO), 5 days (fraction); higher = more cells survive). Details: first compound 0.08 µM.
Method in brief: (§1)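 For relative viability, nuclei counts in treated wells were divided by those in vehicle wells. Lung cancer cell lines had been pin-tool dosed in 1536-well plates the day after seeding and cultured for 5 days, then fixed and stained in one step (final 0.05% Triton X-100, 1% formaldehyde, 1 ug/ml Hoechst) and imaged at 4×. Doses were one drug alone or a fixed anchor-drug dose plus five library-drug doses (not always all listed) in √10 steps, and values are duplicate-plate medians.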

Question: For SW 1573, which relative viability is on record?
Answer: 0.348

Question: For NCI-H358, which relative viability is on record?
Answer: 0.441

Question: With NCI-H727 as the cell line, how does the relative viability read?
Answer: 0.372

Question: Which relative viability does the source give for SK-LU-1 here?
Answer: 0.193

Same assay, conditions: first compound 0.253 µM

Question: How did the relative viability turn out when NCI-H358 was run?
Answer: 0.235

Question: For NCI-H727, which relative viability is on record?
Answer: 0.453

Question: How did the relative viability turn out when SK-LU-1 was run?
Answer: 0.202

Same assay, conditions: first compound 0.8 µM

Question: With SW 1573 as the cell line, how does the relative viability read?
Answer: 0.356

Question: For NCI-H358, which relative viability is on record?
Answer: 0.384

Question: NCI-H727 was tested. Which relative viability did it give?
Answer: 0.445

Question: For SK-LU-1, which relative viability is on record?
Answer: 0.182

Same assay, conditions: first compound 2.53 µM

Question: For SW 1573, which relative viability is on record?
Answer: 0.172

Question: How did the relative viability turn out when NCI-H358 was run?
Answer: 0.0174

Question: Which relative viability does the source give for NCI-H727 here?
Answer: 0.232

Question: With SK-LU-1 as the cell line, how does the relative viability read?
Answer: 0.252

Same assay, conditions: first compound 8 µM

Question: Which relative viability does the source give for SW 1573 here?
Answer: 0.194

Question: How did the relative viability turn out when NCI-H358 was run?
Answer: 0.307

Question: How did the relative viability turn out when NCI-H727 was run?
Answer: 0.471

Question: For SK-LU-1, which relative viability is on record?
Answer: 0.191

These cell lines were tested with CC(C)=CC[C@@H](O)C1=CC(=O)c2c(O)ccc(O)c2C1=O [Shikonin] + Cc1nc(NC(=O)N2CCC[C@H]2C(N)=O)sc1-c1ccnc(C(C)(C)C(F)(F)F)c1 [Alpelisib] (partner 2 µM) in the same assay as above. Details: first compound 0.01 µM.
Method in brief: as §1

Question: SW 1573 was tested. Which relative viability did it give?
Answer: 0.816

Question: With NCI-H358 as the cell line, how does the relative viability read?
Answer: 0.825

Question: Which relative viability does the source give for NCI-H727 here?
Answer: 0.447

Question: SK-LU-1 was tested. Which relative viability did it give?
Answer: 1

Same assay, conditions: first compound 0.1 µM

Question: SW 1573 was tested. Which relative viability did it give?
Answer: 0.888

Question: With NCI-H358 as the cell line, how does the relative viability read?
Answer: 0.807

Question: Which relative viability does the source give for NCI-H727 here?
Answer: 0.547

Question: How did the relative viability turn out when SK-LU-1 was run?
Answer: 1.09

Same assay, conditions: first compound 0.3162 µM

Question: SW 1573 was tested. Which relative viability did it give?
Answer: 0.801

Question: For NCI-H358, which relative viability is on record?
Answer: 0.924

Question: With NCI-H727 as the cell line, how does the relative viability read?
Answer: 0.62

Question: For SK-LU-1, which relative viability is on record?
Answer: 0.965

Same assay, conditions: first compound 1 µM

Question: For SW 1573, which relative viability is on record?
Answer: 0.657

Question: How did the relative viability turn out when NCI-H358 was run?
Answer: 0.707

Question: How did the relative viability turn out when NCI-H727 was run?
Answer: 0.405

Question: Which relative viability does the source give for SK-LU-1 here?
Answer: 0.8

The cell lines below were run with CC(C)N(CCCNC(=O)Nc1ccc(C(C)(C)C)cc1)C[C@H]1O[C@@H](n2ccc3c(N)ncnc32)[C@H](O)[C@@H]1O + C[C@]1(O)C[C@@H](c2nc(-c3ccc4ccc(-c5ccccc5)nc4c3)c3c(N)nccn32)C1 [Linsitinib] (partner 1 µM) in the same assay as above. Details: first compound 0.08 µM.
Method in brief: as §1

Question: For SW 1573, which relative viability is on record?
Answer: 0.603

Question: Which relative viability does the source give for NCI-H358 here?
Answer: 0.775

Question: NCI-H727 was tested. Which relative viability did it give?
Answer: 0.333

Question: For SK-LU-1, which relative viability is on record?
Answer: 0.94

Same assay, conditions: first compound 0.253 µM

Question: Which relative viability does the source give for SW 1573 here?
Answer: 0.872

Question: How did the relative viability turn out when NCI-H358 was run?
Answer: 0.814

Question: Which relative viability does the source give for NCI-H727 here?
Answer: 0.281

Question: With SK-LU-1 as the cell line, how does the relative viability read?
Answer: 1.33

Same assay, conditions: first compound 0.8 µM

Question: SW 1573 was tested. Which relative viability did it give?
Answer: 0.848

Question: NCI-H358 was tested. Which relative viability did it give?
Answer: 0.786

Question: Which relative viability does the source give for NCI-H727 here?
Answer: 0.286

Question: For SK-LU-1, which relative viability is on record?
Answer: 1.17

Same assay, conditions: first compound 2.53 µM

Question: How did the relative viability turn out when SW 1573 was run?
Answer: 0.976

Question: Which relative viability does the source give for NCI-H358 here?
Answer: 0.823

Question: With NCI-H727 as the cell line, how does the relative viability read?
Answer: 0.359

Question: How did the relative viability turn out when SK-LU-1 was run?
Answer: 1.41

Same assay, conditions: first compound 8 µM

Question: Which relative viability does the source give for SW 1573 here?
Answer: 0.825

Question: With NCI-H358 as the cell line, how does the relative viability read?
Answer: 0.668

Question: Which relative viability does the source give for NCI-H727 here?
Answer: 0.209

Question: How did the relative viability turn out when SK-LU-1 was run?
Answer: 0.953

These cell lines were tested with CC(C)N(CCCNC(=O)Nc1ccc(C(C)(C)C)cc1)C[C@H]1O[C@@H](n2ccc3c(N)ncnc32)[C@H](O)[C@@H]1O + CC(=O)Nc1cccc(-n2c(=O)n(C3CC3)c(=O)c3c(Nc4ccc(I)cc4F)n(C)c(=O)c(C)c32)c1 [Trametinib] (partner 0.02 µM) in the same assay as above. Details: first compound 0.08 µM.
Method in brief: as §1

Question: SW 1573 was tested. Which relative viability did it give?
Answer: 0.591

Question: Which relative viability does the source give for NCI-H358 here?
Answer: 0.135

Question: With NCI-H727 as the cell line, how does the relative viability read?
Answer: 0.36

Question: For SK-LU-1, which relative viability is on record?
Answer: 0.567

Same assay, conditions: first compound 0.253 µM

Question: How did the relative viability turn out when SW 1573 was run?
Answer: 0.565

Question: NCI-H358 was tested. Which relative viability did it give?
Answer: 0.137

Question: NCI-H727 was tested. Which relative viability did it give?
Answer: 0.424

Question: For SK-LU-1, which relative viability is on record?
Answer: 0.469

Same assay, conditions: first compound 0.8 µM

Question: How did the relative viability turn out when SW 1573 was run?
Answer: 0.588

Question: NCI-H358 was tested. Which relative viability did it give?
Answer: 0.132

Question: Which relative viability does the source give for NCI-H727 here?
Answer: 0.416

Question: How did the relative viability turn out when SK-LU-1 was run?
Answer: 0.513

Same assay, conditions: first compound 2.53 µM

Question: Which relative viability does the source give for SW 1573 here?
Answer: 0.67

Question: How did the relative viability turn out when NCI-H358 was run?
Answer: 0.13

Question: Which relative viability does the source give for NCI-H727 here?
Answer: 0.349

Question: SK-LU-1 was tested. Which relative viability did it give?
Answer: 0.501

Same assay, conditions: first compound 8 µM

Question: With SW 1573 as the cell line, how does the relative viability read?
Answer: 0.559

Question: Which relative viability does the source give for NCI-H358 here?
Answer: 0.138

Question: With NCI-H727 as the cell line, how does the relative viability read?
Answer: 0.396

Question: How did the relative viability turn out when SK-LU-1 was run?
Answer: 0.428
